Here are results for 23 compounds from patent US7566712B2, “Biaryl piperazinyl-pyridine analogues” (Neurogen Corporation, priority 2003, dated 2009).

The assay concerns the target T1, human capsaicin receptor (Homo sapiens, UniProt Q8NER1).
T1 construct: pBK-CMV expression construct encoding the full length human capsaicin receptor; expressed in transfected cells
In words: Calcium mobilization assay, determination of antagonist activity (Example 6). Format: cell-based. Conditions: Table II. The procedure: A cDNA encoding full length human capsaicin receptor (SEQ ID NO: 1, 2 or 3 of U.S. Pat. No. 6,482,611) was subcloned in the plasmid pBK-CMV (Stratagene, La Jolla, Calif.) for recombinant expression in mammalian cells.
Human embryonic kidney (HEK293) cells were transfected with the pBK-CMV expression construct encoding the full length human capsaicin receptor using standard methods. The transfected cells were selected for two weeks in media containing G418 (400 μg/ml) to obtain a pool of stably transfected cells. Independent clones were isolated from this pool by limiting dilution to obtain clonal stable cell lines for use in subsequent experiments.
This Example illustrates representative calcium mobilization assays for use in evaluating test compounds for agonist and antagonist activity.
Cells transfected with expression plasmids (as described in Example 4) and thereby expressing human capsaicin receptor are seeded and grown to 70-90% confluency in FALCON black-walled, clear-bottomed 96-well plates (#3904, BECTON-DICKINSON, Franklin Lakes, N.J.). The culture medium is emptied from the 96 well plates and FLUO-3 AM calcium sensitive dye (Molecular Probes, Eugene, Oreg.) is added to each well (dye solution: 1 mg FLUO-3 AM, 440 μL DMSO and 440 pi 20% pluronic acid in DMSO, diluted 1:250 in Krebs-Ringer HEPES (KRH) buffer (25 mM HEPES, 5 mM KCl, 0.96 mM NaH2PO4, 1 mM MgSO4, 2 mM CaCl2, 5 mM glucose, 1 mM probenecid, pH 7.4), 50 μl diluted solution per well). Plates are covered with aluminum foil and incubated at 37° C. for 1-2 hours in an environment containing 5% CO2. After the incubation, the dye is emptied from the plates, and the cells are washed once with KRH buffer, and resuspended in KRH buffer.
To measure the ability of a test compound to agonize or antagonize a calcium mobilization response in cells expressing capsaicin receptors to capsaicin or other vanilloid agonist, the EC50 of the agonist capsaicin is first determined. An additional 20 μl of KRH buffer and 1 μl DMSO is added to each well of cells, prepared as described above. 100 μl capsaicin in KRH buffer is automatically transferred by the FLIPR instrument to each well. Capsaicin-induced calcium mobilization is monitored using either FLUOROSKAN ASCENT (Labsystems; Franklin, Mass.) or FLIPR (fluorometric imaging plate reader system; Molecular Devices, Sunnyvale, Calif.) instruments. Data obtained between 30 and 60 seconds after agonist application are used to generate an 8-point concentration response curve, with final capsaicin concentrations of 1 nM to 3 μM. KALEIDAGRAPH software (Synergy Software, Reading, Pa.) is used to fit the data to the equation: y=a*(1/(1+(b/x)^c)) to determine the 50% excitatory concentration (EC50) for the response. In this equation, y is the maximum fluorescence signal, x is the concentration of the agonist or antagonist (in this case, capsaicin), a is the Emax, b corresponds to the EC50 value and c is the Hill coefficient. Determination of Agonist Activity
Test compounds are dissolved in DMSO, diluted in 20 μl KRH buffer so that the final concentration of test compounds in the assay well is between 1 μM and 5 μM, and added to cells prepared as described above. The 96 well plates containing prepared cells and test compounds are incubated in the dark, at room temperature for 0.5 to 6 hours. It is important that the incubation not continue beyond 6 hours. Just prior to determining the fluorescence response, 100 pi capsaicin in KRH buffer at twice the EC50 concentration determined as described above is automatically added by the FLIPR instrument to each well of the 96 well plate for a final sample volume of 200 μl and a final capsaicin concentration equal to the EC50. The final concentration of test compounds in the assay wells is between 1 μM and 5 μM. […]
On the technique in general: A change in cytosolic calcium serves as a functional read-out for many receptors and channels.

[1] abbreviates: determined as described in Example 6 (antagonist activity), "*" = 1 micromolar or less.
Setting [2] is: determined as described in Example 6, class symbol.

T1 sequence (Q8NER1 whole entry): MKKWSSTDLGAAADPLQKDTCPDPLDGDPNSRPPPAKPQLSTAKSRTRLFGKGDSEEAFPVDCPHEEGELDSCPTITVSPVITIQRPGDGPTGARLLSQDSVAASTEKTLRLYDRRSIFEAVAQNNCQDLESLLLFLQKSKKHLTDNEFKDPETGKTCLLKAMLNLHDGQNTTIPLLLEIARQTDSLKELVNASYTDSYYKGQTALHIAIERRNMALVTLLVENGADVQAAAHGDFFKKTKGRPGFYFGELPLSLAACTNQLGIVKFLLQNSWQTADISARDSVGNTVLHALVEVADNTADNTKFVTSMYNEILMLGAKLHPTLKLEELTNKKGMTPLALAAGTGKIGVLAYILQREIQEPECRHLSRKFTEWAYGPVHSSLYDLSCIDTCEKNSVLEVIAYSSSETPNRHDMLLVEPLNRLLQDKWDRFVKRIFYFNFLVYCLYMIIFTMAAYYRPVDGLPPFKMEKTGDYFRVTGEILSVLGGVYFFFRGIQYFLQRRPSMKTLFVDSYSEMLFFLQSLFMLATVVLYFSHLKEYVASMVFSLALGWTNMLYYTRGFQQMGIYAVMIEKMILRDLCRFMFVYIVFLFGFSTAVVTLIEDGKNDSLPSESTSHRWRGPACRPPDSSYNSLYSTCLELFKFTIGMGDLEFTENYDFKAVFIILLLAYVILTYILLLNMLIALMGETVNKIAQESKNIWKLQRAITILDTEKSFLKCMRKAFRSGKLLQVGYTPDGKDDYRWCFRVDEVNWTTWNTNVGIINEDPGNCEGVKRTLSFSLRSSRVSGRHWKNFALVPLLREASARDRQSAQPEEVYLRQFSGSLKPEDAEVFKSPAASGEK

Consider `C[C@@H]1CCCN1c1nc(-c2ccc(Cl)c(F)c2)cc(N2CCN(c3nccnc3Cl)C[C@@H]2C)n1` (relative stereo) [Example 969, rel-4-(4-chloro-3-fluorophenyl)-6-[(2R)-4-(3-chloropyrazin-2-yl)-2-methylpiperazin-1-yl]-2-[(2S)-2-methylpyrrolidin-1-yl]pyrimidine], for which the IC50 under setting [1] is at most 1 µM. `C[C@@H]1CN(c2nccnc2Cl)CCN1c1cc(-c2ccc(F)c(F)c2)nc(Cl)n1` (stereo in doubt) [Example 823, 2-chloro-4-[4-(3-chloropyrazin-2-yl)-2-methylpiperazin-1-yl]-6-(3,4-difluorophenyl)pyrimidine]: under setting [1], the IC50 is at most 1 µM. Turning to `C[C@@H]1CN(c2ncccc2Cl)CCN1c1cc(-c2ccc(F)c(Cl)c2)nc(Cl)n1` (stereo in doubt) [Example 827, 2-chloro-4-(3-chloro-4-fluorophenyl)-6-[4-(3-chloropyridin-2-yl)-2-methylpiperazin-1-yl]pyrimidine], under setting [1], the IC50 was at most 1 µM.

Take `CSc1nc(-c2ccc(F)cc2)cc(N2CCN(c3ncccc3Cl)C[C@H]2C)n1` (stereo in doubt) [Example 839, 4-[4-(3-chloropyridin-2-yl)-2-methylpiperazin-1-yl]-6-(4-fluorophenyl)-2-(methylthio)pyrimidine]: the IC50 under setting [1] was at most 1 µM. As for `C[C@@H]1CN(c2ncccc2Cl)CCN1c1cc(-c2ccc(F)cc2)nc(S(C)(=O)=O)n1` (stereo in doubt) [Example 840, 4-[4-(3-chloropyridin-2-yl)-2-methylpiperazin-1-yl]-6-(4-fluorophenyl)-2-(methylsulfonyl)pyrimidine], the IC50 under setting [1] was at most 1 µM. On the same count and under the same terms, the figure for `C[C@@H]1CN(c2ncccc2Cl)CCN1c1cc(-c2ccc(F)cc2)nc(N2CCCC2)n1` (stereo in doubt) [Example 841, 4-[4-(3-chloropyridin-2-yl)-2-methylpiperazin-1-yl]-6-(4-fluorophenyl)-2-pyrrolidin-1-ylpyrimidine] is at most 1 µM; for `CC1CCCN1c1nc(-c2ccc(F)cc2)cc(N2CCN(c3ncccc3Cl)C[C@H]2C)n1` (stereo in doubt) [Example 842, 4-[4-(3-chloropyridin-2-yl)-2-methylpiperazin-1-yl]-6-(4-fluorophenyl)-2-(2-methylpyrrolidin-1-yl)pyrimidine] it is at most 1 µM; for `CCOC(=O)c1ccc(-c2cc(N3CCN(c4ncccc4Cl)C[C@H]3C)nc(N3CCCC3C)n2)cc1` (stereo in doubt) [Example 867, ethyl 4-[6-[4-(3-chloropyridin-2-yl)-2-methylpiperazin-1-yl]-2-(2-methylpyrrolidin-1-yl)pyrimidin-4-yl]benzoate] it is at most 1 µM. Same read-out and setting: the figure for `CC1CCCN1c1nc(-c2cccc(C#N)c2)cc(N2CCN(c3ncccc3Cl)C[C@H]2C)n1` (stereo in doubt) [Example 869, 3-[6-[4-(3-chloropyridin-2-yl)-2-methylpiperazin-1-yl]-2-(2-methylpyrrolidin-1-yl)pyrimidin-4-yl]benzonitrile] is at most 1 µM; for `C[C@@H]1CN(c2ncccc2Cl)CCN1c1cc(-c2cccc(C#N)c2)nc(N2CCOCC2)n1` (stereo in doubt) [Example 870, 3-{6-[4-(3-chloropyridin-2-yl)-2-methylpiperazin-1-yl]-2-morpholin-4-ylpyrimidin-4-yl}benzonitrile] it is at most 1 µM.

On to `CC(=O)c1cccc(-c2cc(N3CCN(c4ncccc4Cl)C[C@H]3C)nc(N3CCCC3C)n2)c1` (stereo in doubt) [Example 888, 1-{3-[6-[4-(3-chloropyridin-2-yl)-2-methylpiperazin-1-yl]-2-(2-methylpyrrolidin-1-yl)pyrimidin-4-yl]phenyl}ethanone], for which, under setting [1], the IC50 was at most 1 µM.

In the case of `Cc1cc(-c2cc(Cl)nc(N3CCN(c4ncccc4Cl)C[C@@H]3C)n2)ccc1F` (stereo in doubt) [Example 899, 4-chloro-2-[4-(3-chloropyridin-2-yl)-2-methylpiperazin-1-yl]-6-(4-fluoro-3-methylphenyl)pyrimidine], the IC50 under setting [1] was at most 1 µM. For `Cc1cc(-c2cc(N3CCN(c4ncccc4Cl)C[C@@H]3C)nc(N3CCCC3C)n2)ccc1F` (stereo in doubt) [Example 903, 4-[4-(3-chloropyridin-2-yl)-2-methylpiperazin-1-yl]-6-(4-fluoro-3-methylphenyl)-2-(2-methylpyrrolidin-1-yl)pyrimidine], the IC50 under setting [1] is at most 1 µM. With `C[C@@H]1CN(c2nccnc2Cl)CCN1c1cc(-c2ccc(F)c(Cl)c2)nc(Cl)n1` (stereo in doubt) [Example 907, 2-chloro-4-(3-chloro-4-fluorophenyl)-6-[4-(3-chloropyrazin-2-yl)-2-methylpiperazin-1-yl]pyrimidine], under setting [1], the IC50 was at most 1 µM. As for `Cc1cc(-c2cc(N3CCN(c4nccnc4Cl)C[C@H]3C)nc(N3CCCC3C)n2)ccc1F` (stereo in doubt) [Example 915, 4-[4-(3-chloropyrazin-2-yl)-2-methylpiperazin-1-yl]-6-(4-fluoro-3-methylphenyl)-2-(2-methylpyrrolidin-1-yl)pyrimidine], the half-inhibitory concentration (IC50) under setting [1] was at most 1 µM.

On to `C[C@H]1CN(c2nccnc2Cl)CCN1c1cc(-c2ccc(F)c(F)c2)nc(N2CCOCC2)n1` (stereo in doubt) [Example 939, 4-[4-[4-(3-chloropyrazin-2-yl)-2-methylpiperazin-1-yl]-6-(3,4-difluorophenyl)pyrimidin-2-yl]morpholine], for which the IC50 under setting [1] is at most 1 µM.

With `CC1CN(c2nccnc2Cl)CCN1c1nc(-c2ccc(F)c(Cl)c2)cc(N2CCC[C@H]2C)n1` (stereo in doubt) [Example 943, 4-(3-chloro-4-fluorophenyl)-2-[(2R)-4-(3-chloropyrazin-2-yl)-2-methylpiperazin-1-yl]-6-[(2R)-2-methylpyrrolidin-1-yl]pyrimidine], under setting [1], the IC50 was at most 1 µM. The same measure, in the same setting: the result for `CC1CCCN1c1nc(-c2ccc(F)c(Cl)c2)cc(N2CCN(c3ncc(Cl)cc3Cl)C[C@H]2C)n1` (stereo in doubt) [Example 954, 4-(3-chloro-4-fluorophenyl)-6-[4-(3,5-dichloropyridin-2-yl)-2-methylpiperazin-1-yl]-2-(2-methylpyrrolidin-1-yl)pyrimidine] reads at most 1 µM.

In the case of `CC1CCCN1c1nc(-c2ccc(F)cc2)cc(N2CCN(c3nc(C#N)ccc3C#N)C[C@H]2C)n1` (stereo in doubt) [Example 1014, 6-{4-[6-(4-fluorophenyl)-2-(2-methylpyrrolidin-1-yl)pyrimidin-4-yl]-3-methylpiperazin-1-yl}pyridine-2,5-dicarbonitrile], the IC50 (IC50 determined as described in Example 6 (antagonist activity, calcium mobilization)) is at most 1 µM.

Consider `Cc1cccc(-c2nc(N3CCOCC3)nc(N3CCN(c4ccccn4)CC3)n2)c1` [Example 234], for which, under setting [2], the 50% inhibitory concentration (IC50) was at most 1 µM.

On to `CC(C)c1cccc(-c2nc(N3CCOCC3)nc(N3CCN(c4ccccn4)CC3)n2)c1` [Example 235, 2-(3-isopropylphenyl)-4-morpholin-4-yl-6-(4-pyridin-2-ylpiperazin-1-yl)-1,3,5-triazine], for which the IC50 under setting [2] is at most 1 µM. Still for that read-out and setting: the result for `Cc1cc(C)cc(-c2nc(N3CCOCC3)nc(N3CCN(c4ccccn4)CC3)n2)c1` [Example 236, 2-(3,5-dimethylphenyl)-4-morpholin-4-yl-6-(4-pyridin-2-ylpiperazin-1-yl)-1,3,5-triazine] reads at most 1 µM.

On to `CCc1cccc(-c2nc(N3CCOCC3)nc(N3CCN(c4ccccn4)CC3)n2)c1` [Example 237, 2-(3-ethylphenyl)-4-morpholin-4-yl-6-(4-pyridin-2-ylpiperazin-1-yl)-1,3,5-triazine], for which, under setting [2], the IC50 was at most 1 µM.

The IC50 is the point on the concentration scale where inhibition reaches its midpoint.
